Type in all cases: cell-based
One experiment deals with C. albicans. Put plainly: MIC determination (dilution method), C. albicans. The note with it: Candida albicans, read-out: C. albicans MIC. The procedure:
(§1) The minimal inhibitory concentrations (MICs) of the compounds were evaluated using a […] method (Table 3).
(§2) The MIC values of the compounds were determined of using a macrodilution method. Briefly, the compounds were dissolved in MeOH at a final concentration of 2000 µg/mL. Ciprofloxacin and ketoconazole were dissolved in H2O at final concentrations of 100 µg/mL. Syringe filters (0.2 µm) were used for sterilization of all stock solutions. Two-fold serial dilutions of the solutions were used in Mueller Hinton Broth (MHB) to give concentrations of 1.0–1000 µg/mL (for the compounds) and 0.125–64 µg/mL (for ciprofloxacin and ketoconazole). 500 µL from the 10^6 CFU/mL microbial suspensions were added in sterile tubes to give inoculua of 5 × 10^5 CFU/mL. Further, 100 µL of the stock solutions of the compounds and antibiotics were added into the tubes. Control tubes with test microorganisms only and MeOH were prepared. […] The tubes were kept for 48 h at 37 °C.

The next experiment concerns C. albicans (ATCC 14053). The experiment is described as follows: Disc diffusion assay, C. albicans. Conditions: Candida albicans. The procedure:
(§3) The antimicrobial evaluation of the compounds against E. coli, S. aureus and C. albicans at 50 µg/disc was carried out using disc diffusion assay. […] The other compounds were weakly active against the three pathogens with inhibition zones of 6–9 mm (Table 3).
(§4) Using S. aureus (ATCC 25923), E. coli (ATCC 25922), and C. albicans (ATCC 14053), a disc diffusion assay was carried out to evaluate the antimicrobial effects of 1–6 at 50 µg/disc as reported before. Ketoconazole (50 µg/disc) and ciprofloxacin (5.0 µg/disc) served as antibiotics controls.

In experiment [1] the test system is HeLa (human cervical carcinoma). The experiment is described as follows: MTT cytotoxicity assay, HeLa. The note with it: 72 h, read-out: IC50 HeLa. The method, then:
(§5) The cytotoxic and antiproliferative effects of the compounds against MDA-MB-231, HeLa, and HCT 116 cell lines were evaluated using MTT (3-(4,5-Dimethylthiazol-2-yl)-2,5-diphenyltetrazolium bromide) assay (Table 4).
(§6) The cell lines MDA-MB-231 (triple-negative breast cancer, ATCC HTB-26), HeLa (human cervical carcinoma, ATCC CCL-2), HCT 116 (colorectal carcinoma, ATCC CCL-247) were used for the evaluation of the cytotoxicity of the compounds. In addition, NHDF (normal human dermal fibroblasts) cells were used to evaluate the selectivity of compound 2 against the cancerous cell lines. DMEM, with Pen–Strep. (1%) and FBS (10%), was used for culturing MDA-MB-231 cells, while RPMI 1640, with Pen–Strep. (1%) and FBS (10%), was used for culturing HCT 116 and HeLa cells. Finally, NHDF cells were cultured in fibroblast basal medium complemented with Pen–Strep. (1% v/v), heat-inactivated fetal bovine serum (FBS) (2% v/v), insulin (5 µg/mL) and basic fibroblast growth factor (1 ng/mL). Culture of all cells was completed at 37 °C with 5% CO2 and 95% humidity.
(§7) The cytotoxic effects of the compounds were evaluated using MTT assay as reported earlier. Briefly, all cells kept overnight in 5% CO2/air and at 37 °C. Tested compounds were added to the upper row of a 96-well plate followed by 1:4 (v/v) serial dilutions. After 72 h incubation of the compounds with the cells (10,000 cells/well for HCT 116 and NHDF, and 12,000 cells/well for HeLa and MDA-MB-231), the cells’ viability was calculated at 490 nm as reported before. 5-Fluorouracil (5-FU) and DMSO were used as positive and negative controls. The IC50 values reported in […] represent the mean of three separate experiments. A concentration of 10 µM was set as a cutoff value in this assay.

The test system of experiment [2] is MDA-MB-231 (triple-negative breast cancer). Put plainly: MTT cytotoxicity assay, MDA-MB-231. The note with it: Homo sapiens, read-out: IC50 MDA-MB-231. The method, then:
as §5, §6, §7
In general terms: Formazan colour is commonly taken as a measure of viable cells.

Experiment [3] deals with HCT 116 (colorectal carcinoma). The experiment is described as follows: MTT cytotoxicity assay, HCT 116. The note with it: Homo sapiens, read-out: IC50 HCT 116. The procedure:
as §5, §6, §7

The next experiment relates to E. coli. The experiment is described as follows: MIC determination (dilution method), E. coli. Conditions: Escherichia coli; Mueller Hinton Broth, 48 h at 37 °C. The method, then:
as §1, §2

Another experiment deals with S. aureus. Put plainly: MIC determination (dilution method), S. aureus. The note with it: Staphylococcus aureus; Mueller Hinton Broth, 48 h at 37 °C. The method, then: as §1, §2
Another experiment relates to S. aureus (ATCC 25923). Put plainly: Disc diffusion assay, S. aureus. Conditions: Staphylococcus aureus. The method, then: as §3, §4
A general note: A growth-free zone around the sample is the usual read-out of agar diffusion tests.

For a further experiment, the system named is E. coli (ATCC 25922). Put plainly: Disc diffusion assay, E. coli. The note with it: Escherichia coli. The method, then:
as §3, §4

The subject of experiment [4] is NHDF (normal human dermal fibroblasts). Put plainly: MTT cytotoxicity assay, NHDF. The note with it: 72 h. The procedure: as §5, §6
The cytotoxic effects of the compounds were evaluated using MTT assay as reported earlier. […] After 72 h incubation of the compounds with the cells (10,000 cells/well for HCT 116 and NHDF, and 12,000 cells/well for HeLa and MDA-MB-231), the cells’ viability was calculated at 490 nm as reported before. […]

[5] abbreviates: Mueller Hinton Broth, 48 h at 37 °C.
Setting [6] is: ATCC14053, disc diffusion, 50 µg/disc (compounds and ketoconazole), read-out: C. albicans Inhibition Zone.
Where [7] appears, read: Homo sapiens, HeLa, MTT, cutoff 10 µM.
[8] abbreviates: MDA-MB-231, MTT, 72 h, cutoff 10 µM.
Where [9] appears, read: HCT-116, MTT, 72 h, cutoff 10 µM.
[10] abbreviates: ATCC25923, read-out: S. aureus Inhibition Zone.
The mark [11] stands for this setting: ATCC25922, read-out: E. coli Inhibition Zone.
Setting [12] is: ATCC14053, read-out: C. albicans Inhibition Zone.

By MIC is commonly meant the smallest concentration in the dilution series that meets the test's criterion for growth inhibition. The term IC50 denotes the point on the concentration scale where inhibition reaches its midpoint.

Converted amounts (≈) assume the structure as drawn. Read-outs that look alike come from different tables or passages of the source. Where only a bound is given, the exact number is not on record here.

As to `CC(=O)N1CCN(c2ccc(OCC3COC(Cn4ccnc4)(c4ccc(Cl)cc4Cl)O3)cc2)CC1` (centres unmarked) [Ketoconazole, reference compound], the MIC in the experiment on C. albicans (setting [5]) amounted to 0.5 µg/mL (≈ 0.941 µM). The zone of inhibition at 50 µg/disc with C. albicans (ATCC 14053) (setting [6]) came to 30 mm.
For the molecule `NCCCOc1c(Br)cc(C(O)CN)cc1Br` (centres unmarked) [Compound 5, hydroxymoloka’iamine], the IC50 in experiment [1] (setting [7]), in experiment [2] (setting [8]) and in experiment [3] (setting [9]) was not below 10 µM in each case.
As to `O=C(O)c1cn(C2CC2)c2cc(N3CCNCC3)c(F)cc2c1=O` [Ciprofloxacin, reference compound], the MIC came to 0.25 µg/mL (≈ 0.754 µM) in the experiment with E. coli and 0.5 µg/mL (≈ 1.51 µM) in the experiment with S. aureus. Also, the zone of inhibition at 5 µg/disc was found to be 22 mm in the experiment on S. aureus (ATCC 25923) (ATCC25923, disc diffusion, ciprofloxacin 5.0 µg/disc) and 30 mm with E. coli (ATCC 25922) (ATCC25922, disc diffusion, ciprofloxacin 5.0 µg/disc).
For `CCOC(=O)NCCCOc1c(Br)cc(CCN)cc1Br` [Compound 3, ceratinine O], the MIC was 125 µg/mL (≈ 295 µM) against E. coli, 64 µg/mL (≈ 151 µM) with C. albicans (48 h) and 64 µg/mL (≈ 151 µM) with S. aureus. Besides, the zone of inhibition at 50 µg/disc in the experiment on S. aureus (ATCC 25923) (setting [10]) was 8 mm; with E. coli (ATCC 25922) (setting [11]), 6 mm; with C. albicans (ATCC 14053) (setting [12]) it was 9 mm. In addition, the IC50 in experiment [1] (Homo sapiens, HeLa) is not below 10 µM; in [2] (MDA-MB-231, 72 h), not below 10 µM; in experiment [3] (HCT-116, 72 h), 9.5 ± 0.85 µM.
Turning to `N#CC(=O)NCCCOc1c(Br)cc(CCNC=C2C(=O)C=CC2=O)cc1Br` [Compound 2, ceratinine N], the MIC turned out to be 125 µg/mL (≈ 245 µM) with E. coli, 16 µg/mL (≈ 31.3 µM) with C. albicans (setting [5]) and 125 µg/mL (≈ 245 µM) with S. aureus. Besides, the zone of inhibition at 50 µg/disc in the experiment on S. aureus (ATCC 25923) (ATCC25923, disc diffusion, 50 µg/disc, read-out: S. aureus Inhibition Zone) worked out at 7 mm; in the experiment on E. coli (ATCC 25922) (ATCC25922, disc diffusion, 50 µg/disc, read-out: E. coli Inhibition Zone), 6 mm; in the experiment on C. albicans (ATCC 14053) (setting [6]), 16 mm. For the same molecule, the IC50 is 3.5 ± 0.3 µM in [4]; 2.1 µM in experiment [1] (setting [7]); 2.3 ± 0.16 µM in experiment [1] (MTT, cutoff 10 µM); 3.1 ± 0.29 µM in [2] (setting [8]); 2.9 ± 0.18 µM in experiment [3] (setting [9]).
As for `N#CC(=O)NCCCOc1c(Br)cc(CCN)cc1Br` [Compound 6, ceratinamine], the values for the MIC against E. coli, in the experiment with C. albicans (48 h) and in the experiment on S. aureus were 125 µg/mL (≈ 309 µM), 32 µg/mL (≈ 79 µM) and 64 µg/mL (≈ 158 µM), respectively. The zone of inhibition at 50 µg/disc with S. aureus (ATCC 25923) (setting [10]) stood at 9 mm; in the experiment on E. coli (ATCC 25922) (setting [11]), 7 mm; in the experiment on C. albicans (ATCC 14053) (setting [12]), 12 mm. In addition, the IC50 in experiment [1] (Homo sapiens, HeLa) was not below 10 µM; in experiment [2] (MDA-MB-231, 72 h), not below 10 µM; in experiment [3] (HCT-116, 72 h) it was not below 10 µM.
With `O=c1[nH]cc(F)c(=O)[nH]1` [Compound 5-FU, 5-Fluorouracil, reference compound], the figures for the IC50 in experiment [1] (setting [7]), in experiment [2] (setting [8]) and in experiment [3] (setting [9]) were 12.3 ± 0.25 µM, 13 ± 0.3 µM and 4.6 ± 0.23 µM, respectively.
On to `NCCCOc1c(Br)cc(CCN)cc1Br` [Compound 4, moloka’iamine], for which the MIC in the experiment with E. coli, in the experiment with C. albicans (48 h) and with S. aureus was 125 µg/mL (≈ 355 µM) in each case. The results for the zone of inhibition at 50 µg/disc in the experiment with S. aureus (ATCC 25923) (setting [10]), in the experiment on E. coli (ATCC 25922) (setting [11]) and with C. albicans (ATCC 14053) (setting [12]) were 7 mm, 6 mm and 6 mm, respectively. The IC50 in experiment [1] (Homo sapiens, HeLa) was not below 10 µM; in [2] (MDA-MB-231, 72 h), not below 10 µM; in experiment [3] (HCT-116, 72 h) it was not below 10 µM.

These data come from publication PMC7690883, “Pseudoceratonic Acid and Moloka’iamine Derivatives from the Red Sea Verongiid Sponge Pseudoceratina arabica” (Marine Drugs, 2020).
